Assay results reported in PMC4405350, “From Broad-Spectrum Biocides to Quorum Sensing Disruptors and Mussel Repellents: Antifouling Profile of Alkyl Triphenylphosphonium Salts” (PLoS ONE, 2015).

Key:
Mushroom tyrosinase = experiment: Tyrosinase fluorescence quenching (fluorescence spectroscopy); type: binding, Agaricus bisporus; settings: 280 nm excitation, 0–30 μM quencher
Experimental: Fluorescence measurements of tyrosinase solutions were performed using an Edinburgh Instruments LifeSpec II fluorescence spectrometer, exciting the complexes at 280 nm with an Edinburgh Instruments EPLED-280 subnanosecond pulsed diode source (typically pulse width at half maximum around 860 ps, repetition rate 10 MHz) and using Edinburg Instruments F900 acquisition software. A multichannel plate photomultiplier was used as the detector using single photon counting technique. Lifetime estimation was made using instrument response function (IRF) reconvolution analysis with FAST software by Edinburgh Instruments, providing a temporal resolution around 0.2 ns. A blank medium without enzyme was used to confirm that the collected fluorescence comes from the enzyme molecules and any influence of the fluorescence of the quencher and buffer components on the enzyme fluorescence is negligible. […]
Fluorescence of enzymes is very sensitive to conformational changes of the protein structure. The interaction of tyrosinase inhibitors can be evaluated by the analysis of the intrinsic tyrosinase fluorescence when tyrosinase and inhibitor (quencher) molecules are mixed in a solution. In particular, we have evaluated the effect of the tyrosinase inhibitor 16. Quenching of tyrosinase fluorescence is expected as a consequence of conformational alterations induced by the quencher. […]

[1] = target: Mushroom tyrosinase (EC 1.14.18.1) (Agaricus bisporus, UniProt C7FF04); experiment: Tyrosinase inhibition assay (L-Dopa, dopachrome at 475 nm); type: biochemical; settings: 15 and 30 μM inhibitor
Experimental: Tyrosinase inhibition assays were conducted as described in [52] with slight modifications. First, in order to characterize the Michaelis-Menten parameters of the enzyme kinetics, 100 μl of a mushroom tyrosinase solution (25 U) in sodium phosphate buffer (50 mM, pH 6.5) were pipetted in each well of a flat-bottom microtiter plate (Nunc 167008). Two-fold dilutions of L-Dopa, from 4.8 to 0.075 mM (final concentrations) were mixed (100 μl) with the enzyme solution. The enzymatic reaction was followed by measuring the absorbance at 475 nm every 30 s over 15 min, with shaking (150 rpm) between measurements. Temperature was kept constant at 30 °C. The values of KM and vmax under these conditions were obtained from Lineweaver-Burk plots. For tyrosinase inhibition assays, each well of the microtiter plate was filled with 100 μl of a mushroom tyrosinase solution and the appropriate amount of the test substance dissolved in DMSO. The compounds were pre-incubated with the enzyme at 30 °C for 10 min. Subsequently, the enzymatic reaction was triggered by addition of 100 μl of L-Dopa (1.2 mM test concentration). Formation of dopachrome was followed by measuring the absorbance at 475 nm as described above.

[2] = parameters: method as in earlier work; settings: cited from earlier work

Sequence of Mushroom tyrosinase (EC 1.14.18.1) (G1K3P4 entry or part of it): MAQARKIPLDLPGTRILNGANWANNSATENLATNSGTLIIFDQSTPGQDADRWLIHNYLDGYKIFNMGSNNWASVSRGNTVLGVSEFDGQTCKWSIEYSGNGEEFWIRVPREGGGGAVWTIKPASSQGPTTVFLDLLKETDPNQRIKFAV
Sequence of Mushroom tyrosinase (EC 1.14.18.1) (C7FF04 1-392): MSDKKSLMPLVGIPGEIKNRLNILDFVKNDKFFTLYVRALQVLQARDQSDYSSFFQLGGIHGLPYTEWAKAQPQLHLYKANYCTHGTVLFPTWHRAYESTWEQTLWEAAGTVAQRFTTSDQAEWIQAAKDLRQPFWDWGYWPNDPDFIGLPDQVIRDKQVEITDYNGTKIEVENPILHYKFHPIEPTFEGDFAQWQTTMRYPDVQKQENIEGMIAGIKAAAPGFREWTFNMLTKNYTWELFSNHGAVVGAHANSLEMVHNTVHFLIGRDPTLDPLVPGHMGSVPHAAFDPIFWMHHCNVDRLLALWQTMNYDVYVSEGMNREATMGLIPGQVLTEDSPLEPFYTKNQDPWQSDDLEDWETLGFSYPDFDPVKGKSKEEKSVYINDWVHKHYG

For CCCCCCCCCCCCCCCC[P+](c1ccccc1)(c1ccccc1)c1ccccc1 [Compound 16], the “Stern-Volmer quenching constant KSV” value (Mushroom tyrosinase) is listed as “about 4490 M^-1”, the “Type of tyrosinase inhibition (Lineweaver-Burk plots)” value [1] is listed as “non-competitive inhibition” and the cmc threshold [2] is listed as “around 100 μM”.
